{
  "source": "patent US7666996B2",
  "about": "“Casein derived peptides and uses thereof” (priority 2000, dated 2010)",
  "key": {"[1]": {"test_system": "Non-Obese Diabetic (NOD) mice", "assay": "Glucosuria in Non-Obese Diabetic (NOD) mice", "type": "in vivo", "settings": "additional series, assayed at week 16; data not shown", "protocol": "Juvenile (Type I, IDDM) diabetes in Non-Obese Diabetic (NOD) mice:\nPeptides derived from natural casein: NOD mice are a commonly used model for research of autoimmune disease and human Juvenile Diabetes. Six week old female NOD mice received either one or two injections per week of 100 μg of peptides derived from natural casein, for a total of 5 or 10 treatments. Control mice received no treatment. The severity of disease was determined according to glucosuria, which was measured using Combi test sticks [Gross, D. J. et al (1994), Diabetology, 37:1195]. Results were expressed as the percent of glucosuria-free mice in each sample over a 365-day period.\nSynthetic peptides derived from casein: In another experiment, 6 week old female NOD mice received one injection per week of 100 μg of Synthetic peptides derived from casein for a total of 5 treatments. Control mice received no treatment. Results were expressed as the number of healthy mice in the various treated groups."}, "[2]": {"test_system": "murine bone marrow progenitor cells", "assay": "CFU-GEMM colonies from murine bone marrow cells, differential counts", "type": "cell-based", "settings": "53% in controls", "protocol": "Proliferation of megakaryocytes in multipotential colonies (CFU-GEMM) from murine bone marrow cells: Primary bone marrow cells (1×10^5 per ml) from 8-12 week-old C3H/HeJ […], 95% air, at 37° C. The medium, appropriate for the growth of multipotential colonies (CFU-GEMM), contained 1% BSA (Sigma), 10^−4 M thioglycerol (Sigma), 2.8×10^−4 M human transferrin (TF, Biological industries, Israel), 10% WEHI-CM as a source of IL-3 and 2 units per ml erythropoietin (rhEPO, R & D Systems, Minneapolis). […] They were picked with a micropipette, cytocentrifuged and stained with May-Grunwald-Giemsa for differential counts. At least 700 cells were counted for each preparation.\nProliferation of Dendritic cells in CFU-GEMM: Multipotent (CFU-GEMM) colonies grown from primary bone marrow cells as described for the assay of megakaryocyte proliferation above were collected, stained and counted for dendritic cells. At least 700 cells were counted for each preparation.\nProliferation of Plasma cells in CFU-GEMM: Multipotent (CFU-GEMM) colonies grown from primary bone marrow cells as described for the assay of megakaryocyte proliferation above were collected, stained and counted for plasma cells. At least 700 cells were counted for each preparation.\nProliferation of Macrophage Cells in CFU-GEMM: Multipotent (CFU-GEMM) colonies grown from primary bone marrow cells as described for the assay of megakaryocyte proliferation above were collected, stained and counted for macrophage cells. At least 700 cells were counted for each preparation.\nProliferation of Red Blood Cells in CFU-GEMM: Multipotent (CFU-GEMM) colonies grown from primary bone marrow cells as described for the assay of megakaryocyte proliferation above were collected, stained and counted for red blood cells. At least 700 cells were counted for each preparation.\nProliferation of Polymorphonuclear Cells (PMN) in CFU-GEMM: Multipotent (CFU-GEMM) colonies grown from primary bone marrow cells as described for the assay of megakaryocyte proliferation above were collected, stained and counted for polymorphonuclear cells. […]"}, "[3]": {"test_system": "murine bone marrow progenitor cells", "assay": "CFU-GM colony formation with IL-3 and G-CSF, murine bone marrow", "type": "cell-based", "protocol": "Cells were scored in the macroscopic colonies grown from murine bone marrow cells prepared similarly to the CFU-GEMM colonies previously described. Cells were incubated with hematopoietic factors cytokine (IL-3) and colony stimulating factor (G-CSF), and 25 μg or more of synthetic peptides derived from casein (J), representing amino acids 1-22 of α-S1 casein, or 30-4, representing amino acids 1-6 of α-S1 casein, for 14 days, individually or in combination. The stimulation of colony formation (CFU) is expressed as the number of myeloid colonies in 10^5 plated MNCs.\nSynthetic peptides derived from αS1-casein stimulate Granulopoietic (GM) cell proliferation in CFU-GM: As mentioned hereinabove, formation and expansion of CFU-GM (Granulocyte and Macrophage) colonies, and CFU-GEMM (Granulocyte, Erythroid, Macrophage and Megakaryocyte) colonies constitute one of the early events in the differentiation of hematopoietic progenitor cells in the bone marrow."}, "[4]": {"test_system": "irradiated, bone marrow transplanted mice", "assay": "Leukocyte and platelet reconstitution in bone marrow transplant recipient mice", "type": "in vivo", "settings": "800 cGy; 1.0 mg i.p. daily, days 4-7", "protocol": "Leukocyte and platelet reconstitution in bone marrow transplant recipient Mice: BALB/c mice were sub-lethally irradiated at a source to skin distance of 70 cm, dosage of 50 cGy per minute, for a total of 600 cGy. The irradiated mice were […] casein, synthetic peptides derived from casein (13-26 amino acids, see Table 3 above), or human serum albumin (controls), following a double-blinded protocol. Leukocyte reconstitution was determined according to cell count in peripheral blood collected at indicated intervals from 6 to 12 days post treatment. Platelet reconstitution was determined by cell count in blood collected from the retro orbital plexus, into EDTA-containing vials, at indicated intervals from day 6 to day 15 post treatment. […]\nIn a third series of experiments, the mice were irradiated (800 cGy), reconstituted and injected intraperitoneally with 1.0 mg synthetic peptides derived from casein (peptides 3a and 4P, representing the first 6 and 12 amino acids of the N terminus of αS1 casein, respectively—see Table 3 above) daily, on days 4, 5, 6 and 7 post-transplantation. Platelet reconstitution was assayed at 10 and 12 days post-transplantation.\nIn a fourth series of experiments, F1 mice were irradiated (750 cGy), reconstituted with syngeneic bone marrow, and injected intravenously 24 hours later with 1 mg per mouse of synthetic peptides derived from casein representing amino acids 1-22 of the N terminus of αS1 casein. In addition, 2 (two) groups of mice were treated each with a natural fraction of αS1 casein position 1-23, and a fraction of peptides derived from natural κ-casein, representing amino acid coordinates 106-169 of κ-casein (SEQ ID NO: 27). WBC counts were conducted on days 5, 7, 10 and 12 post-transplantation."}, "[5]": {"test_system": "HIV-1 (CEM lymphocyte cells)", "assay": "Inhibition of HIV-1 infection of CEM lymphocytes", "type": "cell-based", "settings": "for Lymphocyte cell numbers: day 7; for HIV-1 infection level, HIV-P24 antigen: control 0.52", "protocol": "Peptides: Peptides [either peptides derived from natural casein or synthetic peptides derived from casein (2-26 amino acids in length, see table 3)] supplied as lyophilized powder were resuspended in RPMI complete medium and added to cell cultures at a final concentrations of 50 to 1000 μg per ml.\nCells: Several types of freshly isolated human cells (primary cells) and cell lines are known to be susceptible to in vitro HIV-1 infection, although essentially any cell displaying even low surface levels of the CD4 molecule can be considered a potential target for HIV-1 infection. Two commonly used human cell lines which are highly sensitive for HIV-1 infection were chosen, CEM and Sup-T1.\nCEM is a human T4-lymphoblastoid cell line initially derived by G. E. Foley et al. [(1965), Cancer 18:522] from peripheral blood buffy coat of a person with acute lymphoblastic leukemia. These cells were continuously maintained in suspension in medium, and have been used widely for analysis of infectivity, antiviral agents and neutralizing antibodies.\nVirus: The HIV virus strain employed was HIV-1IIIB, originally designated HTLV-IIIB. Concentrated culture fluids of peripheral blood from several patients with AIDS or related diseases were used to establish a permanent productive infection in H-9 cells. This subtype B virus has high capacity to replicate in human T-cell lines. Viral titer was 5.38 ng per ml in stock solution.\nHIV-1 P^24 antigen capture assay: An HIV-1 P^24 Antigen capture assay kit employed was designed to quantitate the HIV-1 P^24 core antigen, which is proportionally related to the degree of viral production in cells. This kit was purchased from the AIDS Vaccine program of the SAIC-NCI-Frederick Cancer Research Institute, P.O. Box B, Frederick, Md. 21702, USA and included 96 well plates coated with monoclonal antibody to HIV-1 P^24, primary antibody-rabbit anti-HIV P^24 serum, secondary antibody-Goat anti-rabbit-IgG (H+L) peroxidase conjugated antibody, TMB peroxidase substrate system and lysed HIV-1 P^24 standard. The HIV-1 P^24 antigen capture assay was analyzed by Organon-Technica ELISA reader at 450 nm with a reference at 650 nm.\nHIV-1 P^24 antigen capture ELISA: HIV infection was measured with an indirect enzyme immunoassay which detects HIV-1 P^24 core antigens in tissue culture media. Tissue culture supernatant was reacted with primary rabbit anti-HIV-1 P^24 antigen and visualized by peroxidase conjugated goat anti rabbit IgG. The reaction was terminated by adding 4N H2SO4, wherein the intensity of the color developed is proportional to the amount of HIV-1 antigen present in the tissue culture supernatant.\nHIV infection of human cultured CD4 cells: For longer incubations, the cells (CEM, Sup-T1) were preincubated with several increasing concentrations of peptides derived from natural casein (50-1000 μg per ml) or synthetic peptides derived from casein (10-500 μg per ml) for 24 (for synthetic and natural peptides) and 48 (only for natural peptides) hours and HIV-1IIIB (45 pg per ml final concentration) was added to each well thereafter. For the shorter incubations (3 hours), HIV-1IIIB was preincubated with the peptides for 3 hours and then added to cells (5000 cells/well) in tissue culture plates. Controls were IF (Infected, cells cultured with HIV-1 and without peptides), UIF (Uninfected, cells cultured without HIV-1 and without peptides) and UIF +Ch (Uninfected+peptides derived from natural casein, cells cultured in the presence of peptides derived from natural casein {50-1000 μg per ml}) to test the effect of peptides derived from natural casein and synthetic peptides derived from casein on cell viability and growth. Cells were counted for viability and proliferation rate on day 7, 10 and day 14 post infection (the day of P^24 antigen culture supernatant harvest). Cells and tissue culture supernatants (media) were harvested and lysed immediately in 1/10 volume of 10% Triton X-100. […]"}, "[6]": {"test_system": "human Peripheral Blood Stem Cells (K562 target cells)", "assay": "Natural Killer (NK) cell activity in cultured human PBSC", "type": "cell-based", "protocol": "From human Peripheral Blood Stem Cells (PBSC): PBSC of G-CSF treated subjects were separated on a FICOLL gradient, washed twice with RPMI-1640 medium containing 10% FCS and glutamine and seeded into 1.5 ml wells with or without peptides derived from natural casein or synthetic peptides derived from casein, as indicated, (0-500 μg per ml). Following two days incubation the cells were assayed for Natural Killer activity by measuring radioactivity released from ^35S-labeled K562 target cells (NEG-709A, 185.00 MBq, […] EASYTAGth Methionine, L-[^35S] 43.48 TBq per mmol, 1175.0 Ci per mmol, 0.488 ml, Boston USA). Two concentrations of effector cells (2.5×10^5 and 5×10^5 cells per well) were incubated with 5×10^3 target cells per well (effector:target cell ratios of 50:1 and 100:1, respectively) in U-bottomed 96 well tissue culture plates. The cells were incubated for 5 hours at 37° C. in 5% CO2, 95% air and precipitated by 5 minutes centrifugation at 1000 rpm. ^35S release was measured in 50 μl samples of the supernatant liquid."}},
  "data": [
    {"substance": "RPKH [2P, synthetic peptide, N-terminal 4 amino acids of αS1 casein]", "values": [
      {"measurement": "prevention of onset of glucosuria (in words)", "setting": "[1]", "result": "effectively prevented the onset of glucosuria"},
      {"measurement": "red blood cells, % of total cell count", "setting": "[2]", "result": 71, "unit": "%"}
    ]},
    {"substance": "RPKHPI [4P, synthetic peptide, N-terminal 6 amino acids of αS1 casein]", "values": [
      {"measurement": "myelocyte formation with G-CSF and IL-3 (in words)", "setting": "[3]; 25 μg or more, 14 days", "result": "synergistic increase"},
      {"measurement": "increase in proliferation of granulocytes", "setting": "[3]; in the presence of G-CSF", "result": 18, "unit": "%"},
      {"measurement": "increase in platelet counts over control, 12 days post transplantation", "setting": "[4]", "result": 29, "unit": "%"},
      {"measurement": "platelet counts, 12 days post transplantation", "setting": "[4]", "result": 872000, "unit": "mL⁻¹"},
      {"measurement": "Cell counts", "setting": "[5]; 25 μg per ml, virus pre-treated 3 hours, infected control 1.06×10^6", "result": "1.26×10^6"},
      {"measurement": "Cell numbers", "setting": "[5]; 250 μg per ml, virus pre-treated 3 hours, infected control 1.06×10^6", "result": "1.59×10^6"},
      {"measurement": "HIV-P24 antigen, viral particles vs infected control (in words)", "setting": "[5]; virus preincubated 3 hours, 7 days post infection", "result": "dose dependent reduction"}
    ]},
    {"substance": "RPK [1P, synthetic peptide, N-terminal 3 amino acids of αS1 casein]", "values": [
      {"measurement": "prevention of onset of glucosuria (in words)", "setting": "[1]", "result": "effectively prevented the onset of glucosuria"},
      {"measurement": "target cell lysis relative to untreated controls", "setting": "[6]; PBS cells from 5 donors with hematopoietic disease, 25-250 μg/ml", "result": "from 2- to greater then 8-fold"},
      {"measurement": "effect on NK activity in PBSC from healthy human donors", "setting": "[6]; healthy donors", "result": "No significant effect"},
      {"measurement": "Lymphocyte cell numbers", "setting": "[5]; 100 μg per ml, infected control 1.06×10^6", "result": "1.29×10^6"},
      {"measurement": "HIV-1 infection level, HIV-P24 antigen", "setting": "[5]; 100 μg/ml, 7 days post infection", "result": 0.17, "unit": "ng P^24 Antigen/ml"},
      {"measurement": "Lymphocyte cell numbers", "setting": "[5]; 500 μg per ml, infected control 1.06×10^6", "result": "2.01×10^6"},
      {"measurement": "HIV-1 infection level, HIV-P24 antigen", "setting": "[5]; 500 μg/ml, 7 days post infection", "result": 0.14, "unit": "ng P^24 Antigen/ml"}
    ]}
  ]
}
